# From PMC5234788 (PLoS ONE, 2017)
# Experiments:
# Serotonin, 5HT4 = tested on: T1, Serotonin, 5HT4; test: Radio-ligand binding assay, Serotonin 5HT4; conditions: 10 μM l-THBr; radioligand [3H] 113808
# T1 construct: Caliper Lifescience
# Method: (§1) To determine the possible targets of l-THBr action, the binding affinities of l-THBr to neurotransmitter receptors known to be involved in sedation, hypnosis and anxiety were investigated. Radio-ligand binding assays were performed by Caliper Lifescience (Hopkinton, MA, USA). The screening was carried out at a concentration of 10 μM l–THBr to test its ability to inhibit the binding of radioligands to their corresponding receptors. The results were expressed as percentage of inhibition of labeled ligand binding to individual receptors. Significant binding activity was defined as ≥50%.
# male CD-1 ICR mice = test: Elevated plus-maze test; type: in vivo
# Excerpt: The elevated plus-maze test is widely used for the screening and evaluation of anxiolytic drugs. The apparatus consists of two open arms (30 cm × 5 cm) and two enclosed arms (30 cm × 5 cm × 15 cm), which is elevated 45 cm above the ground. The entire maze was made of clear Plexiglas and illuminated by four 30 W white lights with 300 lx light intensity arranged as a cross 100 cm above the maze. 48 male CD-1 ICR mice were randomly divided into either the vehicle group, one of three doses of l–THBr groups, or the diazepam group. 30 min after injection, mice were gently placed on the center platform facing an open arm, and the number of entries and the time spent in both arms were recorded by a video camera for 5 min. The results were expressed as the percentage of entries into the open arms (%) = (the number of entries into the open arms / the total number of entries into the four arms) × 100%; and the percentage of time spent in the open arms (%) = (time spent in the open arms / total time spent in the four arms) × 100%.
# In a separate experiment, WAY100635 (a 5-HT1A antagonist) was used to test whether the anxiolytic-like activity of l-THBr is mediated by the activation of the 5-HT1A receptor. Forty male CD-1 ICR mice were randomly divided into one of four groups: vehicle, WAY100635 (3 mg/kg, i.p.), l–THBr (5 mg/kg, i.p.) or WAY100635 (3 mg/kg, i.p.) + l–THBr (5 mg/kg, i.p.). Mice were administered vehicle or WAY100635 followed by vehicle or l–THBr (5 mg/kg) injections 15 min later. The test was performed 30 min after the administration of l-THBr or vehicle.
# [1] = tested on: T2, GABA A, BDZ, Alpha 1 site; test: Radio-ligand binding assay, GABA A BDZ alpha 1 site; conditions: 10 μM l-THBr; radioligand [3H]Flunitrazepam
# T2 construct: Caliper Lifescience
# Method: as §1
# Dopamine, D3 = tested on: T3, Dopamine, D3; test: Radio-ligand binding assay, Dopamine D3; conditions: 10 μM l-THBr
# T3 construct: Caliper Lifescience
# Method: as §1
# GABA-B = tested on: T4, GABA-B; test: Radio-ligand binding assay, GABA-B; conditions: 10 μM l-THBr; radioligand [3H]CGP 54626A
# T4 construct: Caliper Lifescience
# Method: as §1
# Serotonin, 5HT3 = tested on: T5, Serotonin, 5HT3; test: Radio-ligand binding assay, Serotonin 5HT3; conditions: 10 μM l-THBr; radioligand [3H]GR 65630
# T5 construct: Caliper Lifescience
# Method: as §1
# [2] = l-THBr 1 or 5 mg/kg, i.p., P < 0.05 vs control
compound,measurement,setting,value
"COc1ccc2c(c1O)CN1CCc3cc4c(cc3[C@@H]1C2)OCO4 [l-THBr, levo-tetrahydroberberrubine]",Average inhibition percentage,"Serotonin, 5HT4",32.84%
same,anxiolytic-like effects (open arm entries and time) on co-administration of 5-HT1A antagonist WAY100635,male CD-1 ICR mice; l-THBr 5 mg/kg i.p. + WAY100635 3 mg/kg i.p. given 15 min earlier,significantly reversed
same,ratio of entries into the open arms,male CD-1 ICR mice; [2],increased
same,ratio of time spent in the open arms,male CD-1 ICR mice; [2],increased
same,Average inhibition percentage,[1],-3.30%
same,Activity,"Dopamine, D3",Yes (Significant binding affinity of l-THBr was defined as greater than 50% inhibition of ligand binding)
same,Average inhibition percentage,"Dopamine, D3; radioligand [3H]7-OH-DAPT",77.61%
same,Average inhibition percentage,GABA-B,-6.94%
same,Average inhibition percentage,"Serotonin, 5HT3",23.02%
